Experiment: PK1: absolute/subcutaneous bioavailability study of Tacrolimus solution (IV and SC)
Type: in vivo, female Göttingen minipig
Conditions: for AUClast/D1 / AUC∞/D1 / Cmax/D1: dose-normalized by actual dose per kg
Protocol: PK1: A 2-Month Pharmacokinetic Study of Different Sustained-Release Formulations of Tacrolimus after Subcutaneous Administration and Subcutaneous Bioavailability Study of Tacrolimus in Female Göttingen Minipig
Evaluation of the Absolute Bioavailability of Tacrolimus
The dose volume for each animal was 12.5 mL corresponding to a unique dose of 2.5 mg/animal. Solution was administered: • intravenously into the ear vein using 20 mL polypropylene syringe and 23 G butterfly needle. • subcutaneously in a skin fold caudal to the axillar region/shoulder using 20 mL polypropylene syringe and 21 G needle.
Blood samples were collected into EDTA tubes at predose and at different time points: • Intravenous dosing: 5 min (0.083 h), 15 min (0.25 h), 30 min (0.5 h), and 1, 2, 6, 24, 48, 72 and 96 h after end of dosing. • Subcutaneous dosing: 30 min (0.5 h), and 1, 2, 4, 6, 10, 24, 48, 72 and 96 h after end of dosing.
Whole blood samples were analyzed to determine the concentration of the test item using a qualified analytical procedure. 2-Month Pharmacokinetic Study of Sustain-Release Formulations

[1] = Tacrolimus solution 2.5 mg/animal IV
[2] = Tacrolimus solution 2.5 mg/animal SC
[3] = female, Göttingen, minipig, Tacrolimus solution 2.5 mg/animal IV, whole blood
[4] = female, Göttingen, minipig, Tacrolimus solution 2.5 mg/animal SC, whole blood

AUClast/D1 [1]: 17900 ± 1620 kg·ng·h/mL/mg | AUC∞/D1 [1]: 19700 ± 1750 kg·ng·h/mL/mg | Clast (Tacrolimus solution 2.5 mg/animal IV, whole blood): 4.22 ± 2.08 ng/mL | tlast (Tacrolimus solution 2.5 mg/animal IV, whole blood, median (range)): 95.7 (95.7-96.1)^$ h | AUClast/D1 [2]: 17100 ± 1090 kg·ng·h/mL/mg | AUC∞/D1 [2]: 18100 ± 1150 kg·ng·h/mL/mg | Cmax/D1 [2]: 779 ± 30.8 kg·ng/mL/mg | Cmax/D1 (Tacrolimus solution 2.5 mg/animal SC, listed as immediate release compound): 779 kg·ng/mL/mg | Clast (Tacrolimus solution 2.5 mg/animal SC, whole blood): 2.89 ± 0.759 ng/mL | tlast (Tacrolimus solution 2.5 mg/animal SC, whole blood, median): 96 h | bioavailability (female, Göttingen, minipig, whole blood, subcutaneous, Tacrolimus solution 2.5 mg/animal SC vs IV): 92.4% | AUC(0-inf) [3]: 2040 ± 258 ng·h/mL | AUC(0-t) [3]: 1850 ± 224 ng·h/mL | half-life [3]: 31.5 ± 1.62 h | AUC(0-inf) [4]: 1870 ± 189 ng·h/mL | AUC(0-t) [4]: 1760 ± 169 ng·h/mL | Cmax [4]: 80.2 ± 2.63 ng/mL | half-life [4]: 25.7 ± 2.25 h | Tmax (female, Göttingen, minipig, Tacrolimus solution 2.5 mg/animal SC, whole blood, median): 4 h
SMILES: C=CC[C@@H]1/C=C(\C)C[C@H](C)C[C@H](OC)[C@H]2O[C@@](O)(C(=O)C(=O)N3CCCC[C@H]3C(=O)OC(/C(C)=C/[C@@H]3CC[C@@H](O)[C@H](OC)C3)[C@H](C)[C@@H](O)CC1=O)[C@H](C)C[C@@H]2OC (stereo partly shown) [Tacrolimus]

Source: patent publication US20240122905A1, “PHARMACEUTICAL COMPOSITION” (MedinCell S.A., priority 2020, published 2024)
